Reference: US20240208963A1, “CRYSTALLINE MELANOCORTIN SUBTYPE-2 RECEPTOR (MC2R) ANTAGONIST” (Crinetics Pharmaceuticals, Inc., priority 2022, published 2024)
≈ marks a conversion by molar mass, not a printed value. Entries after “also recorded” stand apart in the source; their conditions may differ. Where a name gives a salt, the structure may show the parent alone. Read-outs that look alike come from different tables or passages of the source. Marks after values point to notes of the source that are not given here.

Tests used:
[1] = Solubility of solid state forms in solvents (gravimetric or solvent addition); type: physicochemical
Experimental: The solubility of certain solid state forms of Compound I was determined in various solvents by either gravimetric solubility or solvent addition.
About 25 mg of compound was weighed into vials. Approximately 5 vol. (0.125 mL) of solvent was added to the solids and the mixtures stirred at the designated temperature (RT or 50° C.). Solutions were noted and an additional 0.125 mL of solvent was added to the slurries. […] If a thicker slurry was noted, 0.25 mL of solvent was added (total volume 0.5 mL). If a thick slurry was again noted, an additional 0.25 mL of solvent was added (total volume 0.75 mL). After stirring for 2 days, the slurries were centrifuged, the supernatant was collected into preweighed vials, and the solvent evaporated at 50° C. (ambient pressure) without stirring. The vials containing the solid residues were dried in a vacuum oven at 50 C, 10^−2-10^−1 Torr, for 3 h before weighing again to determine the mass of solid that was dissolved in the supernatant (i.e. mg solid/mL solvent).
About 20 mg of compound was weighed into vials. Solvent was added in aliquots and stirred at the designated temperature until complete dissolution was observed. This measurement gave a solubility range.

[2] = Salt screening XRPD stages: drying and overnight humidity exposure; settings: for Form stability upon drying (XRPD): dried under vacuum at 50° C. for at least 3 h
Experimental: XRPD analysis is typically done in three stages: 1) Wet: XRPD of the wet cake is done for all samples whenever solids appropriate for sampling were observed. 2) Dry: Unique solids are then left on XRPD plates and dried under vacuum at 50° C. for at least 3 h. XRPD of unique dry solids are then collected. 3) Humid: Solids are then exposed to >95% relative humidity overnight and XRPD on resulting solids is collected. The humid environment is generated by placing a beaker of saturated potassium sulfate in water in a sealed container. This procedure is not carried out for any amorphous solids obtained. All XRPD patterns are compared to counter ion XRPD patterns and known free molecule patterns.
A qualitive humidity exposure test was performed by exposing approximately 10 mg of the maleate to 80% RH overnight.

[3] = Form stability at ambient conditions for one week (XRPD); type: physicochemical; settings: maleate
Source text: Some of the samples generated in the antisolvent crystallization experiments were mixtures of Pattern B, Pattern C, and Pattern D. These samples were left at ambient conditions for one week, then analyzed again by XRPD.
Pure Pattern B was generated in the antisolvent crystallization with MIBK and heptane. […] The solids were scraped from the XRPD plate and used for simultaneous TGA/DSC analysis. […] After the solids required for the TGA/DSC analysis were transferred to the pan, the remainder of the solids were re-pressed to the XRPD sample plate and analyzed again.

[4] = Solubility in simulated fluids and water; type: physicochemical; settings: 37° C., 30 min
Experimental: Calibration samples for solubility in simulated fluids were prepared with freebase Compound I.
Solubility in simulated fluids were studied with the mandelate and maleate solids. The simulated fluids FaSSIF (fasted-state intestinal), FaSSGF (fasted-state gastric), and FeSSIF (fed-state intestinal) were removed from the refrigerator, warmed to room temperature, and the pH of each was measured. Between 1.9 and 2.0 mg of each salt was weighed into four vials and 1 mL of each fluid was added, including water. Stir bars (10 mm) were added to the vials and the vials were stirred at 37° C. After 30 mi (mandelate samples) or 1 h (maleate samples), the pH of each solution was measured, then 400 μL of each was removed and syringe filtered with 0.45 µm syringe filters. Approximately 300 μL of the recovered filtrate was diluted 5× with diluent and injected for HPLC analysis. The remainder of the samples in the vials were allowed to stir overnight. After 24 h stirring at 37° C., samples were filtered and diluted as before, and injected for analysis.

[5] = Dynamic vapor sorption (DVS); type: physicochemical
Experimental: DVS was performed using a DVS Intrinsic 1. The sample (20-25 mg) was loaded into a sample pan, suspended from a microbalance and exposed to a humidified stream of nitrogen gas. The sample was held for a minimum of 5 min at each level and only progressed to the next humidity level if there was <0.002% change in weight between measurements (interval: 60 s) or 240 min had elapsed. The following program was used: • 1. Equilibration at 50% RH • 2. 50% to 2%. (50%, 40%, 30%, 20%, 10%, and 2%) • 3. 2% to 95% (2%, 10%, 20%, 30%, 40%, 50%, 60%, 70%, 80%, 90%, and 95%) • 4. 95% to 2% (95%, 80%, 70%, 60%, 50%, 40%, 30%, 20%, 10%, and 2%) • 5. 2% to 50% (2%, 10%, 20%, 30%, 40%, and 50%)

[6] = Stability of crystalline forms at 40° C. and 75% relative humidity (XRPD, HPLC purity)
Experimental: Approximately 10 mg of the Crystalline Pattern D of Compound I Maleate, 20 mg of the Crystalline Pattern C of Compound I Maleate, and 10 mg of the Crystalline Pattern E of Compound I Mandelate were weighed into open 4 mL vials that were placed into a 20 mL vial containing a saturated NaCl solution. The vial was sealed and kept at 40° C. for 7 days, creating an atmosphere at 75% relative humidity in the system. After 7 days, the materials were sampled and plated for XRPD analysis.
The stability test was repeated on Patterns C and D of Compound I Maleate for 11 days.

[7] = 40° C., 75% relative humidity, 7 days

`CCOc1ccccc1-c1ccc(N2CCN(C(=O)C3(C(F)(F)F)CCC3)C[C@H]2CC)c(C(=O)N[C@@H]2CN3CCC2CC3)n1` [Compound I Maleate, N-[(3S)-1-azabicyclo[2.2.2]octan-3-yl]-6-(2-ethoxyphenyl)-3-[(2R)-2-ethyl-4-[1-(trifluoromethyl)-cyclobutanecarbonyl]piperazin-1-yl]pyridine-2-carboxamide maleate] showed a solubility ([1]; EtOAc, 50° C., maleate) of 34 mg/mL, a solubility ([1]; EtOAc, RT, maleate) of 21 mg/mL and a solubility ([1]; EtOH, RT, maleate) of over 200 mg/mL. For the same compound, the solubility ([1]; IPAc, 50° C., maleate) was 13 mg/mL, the solubility ([1]; IPAc, RT, maleate) was 8 mg/mL and the solubility ([1]; MEK, RT, maleate) was over 200 mg/mL. The solubility ([1]; MIBK, 50° C., maleate) was 71 mg/mL, the solubility ([1]; MIBK, RT, maleate) was 49 mg/mL and the solubility ([1]; MeOH, RT, maleate) was over 200 mg/mL. For the same compound, the solubility ([1]; MtBE, 50° C., maleate) was 4 mg/mL, the solubility ([1]; MtBE, RT, maleate) was 4 mg/mL and the solubility ([1]; THF, RT, maleate) was over 200 mg/mL. It also gave a solubility ([1]; acetone, RT, maleate) of over 200 mg/mL, a solubility ([1]; cyclohexane, 50 °C, organic solvent or mixture, thermodynamic from solid, cyclohexane, 50° C., read-out: Solubility) of 3 mg/mL and a solubility ([1]; cyclohexane, organic solvent or mixture, thermodynamic from solid, cyclohexane, RT, read-out: Solubility) of under 3 mg/mL. For the same compound, the solubility ([1]; n-heptane, 50° C., maleate) was 3 mg/mL, the solubility ([1]; n-heptane, RT, maleate) was under 3 mg/mL and the “Mass gain in qualitative humidity exposure test” value ([2]; 80% RH overnight, approximately 10 mg) was “No detectable mass gain”.
With `CCOc1ccccc1-c1ccc(N2CCN(C(=O)C3(C(F)(F)F)CCC3)C[C@H]2CC)c(C(=O)N[C@@H]2CN3CCC2CC3)n1` [Compound I, N-[(3S)-1-azabicyclo[2.2.2]octan-3-yl]-6-(2-ethoxyphenyl)-3-[(2R)-2-ethyl-4-[1-(trifluoromethyl)-cyclobutanecarbonyl]piperazin-1-yl]pyridine-2-carboxamide] the solubility ([1]; EtOAc, RT, listed as Amorphous free base) was >500^a mg/mL, the solubility ([1]; EtOH, RT, listed as Amorphous free base) was >500^a mg/mL and the solubility ([1]; IPA:water (1:1 vol.), aqueous with cosolvent or surfactant or cyclodextrin, thermodynamic from solid, IPA:water (1:1 vol.), RT, read-out: Solubility) was 167 to 250 mg/mL (≈ 272 to 407 mM). For the same compound, the solubility ([1]; MIBK, RT, listed as Amorphous free base) was >500^a mg/mL, the solubility ([1]; MtBE, RT, listed as Amorphous free base) was >500^a mg/mL and the solubility ([1]; acetone, RT, listed as Amorphous free base) was >500^a mg/mL. For the same compound, the “Solubility (in words)” value ([1]; all solvents tested except heptane and IPA:water (1:1 vol.)) was “freely soluble”, the “Solubility (in words)” value ([1]; heptane) was “low solubility” and the solubility ([1]; n-heptane, RT, listed as Amorphous free base) was under 26 mg/mL. For the same compound, the solubility ([1]; toluene, organic solvent or mixture, thermodynamic from solid, toluene, RT, read-out: Solubility) was over 500 mg/mL.
In the case of `CCOc1ccccc1-c1ccc(N2CCN(C(=O)C3(C(F)(F)F)CCC3)C[C@H]2CC)c(C(=O)N[C@@H]2CN3CCC2CC3)n1.O=C(O)/C=C\C(=O)O` [Pattern B, N-[(3S)-1-azabicyclo[2.2.2]octan-3-yl]-6-(2-ethoxyphenyl)-3-[(2R)-2-ethyl-4-[1-(trifluoromethyl)-cyclobutanecarbonyl]piperazin-1-yl]pyridine-2-carboxamide maleate], the “Form conversion by XRPD at ambient conditions” value [3] is reported as “converted to Pattern C; also recorded: some low intensity peaks associated with Pattern C” and the “Form stability upon drying (XRPD)” value [2] is reported as “mostly converts to Pattern C”.
With “N-[(3S)-1-azabicyclo[2.2.2]octan-3-yl]-6-(2-ethoxyphenyl)-3-[(2R)-2-ethyl-4-[1-(trifluoromethyl)-cyclobutanecarbonyl]piperazin-1-yl]pyridine-2-carboxamide mandelate [mandelate Pattern E]” the “Sample pH” value ([4]; FaSSGF (initial pH 1.49)) was 1.53, the “Sample pH” value ([4]; FaSSIF (initial pH 6.35)) was 6.41 and the “Sample pH” value ([4]; FeSSIF (initial pH 4.83)) was 4.89. For the same compound, the “Hygroscopicity (in words)” value ([5]; DVS) was “moderately hygroscopic”, the “Change by XRPD following the DVS analysis” value ([5]; after DVS from 2 to 95% RH) was “No change” and the “Reversible mass gain (DVS)” value ([5]; from 2 to 95% relative humidity) was 5.68 wt. %. For the same compound, the “Behaviour at high humidity” value ([5]; high humidity) was “began to convert to amorphous”, the “Stability after humidity exposure (XRPD, deliquescence)” value ([2]; >90% relative humidity overnight) was “no deliquescence or loss of crystallinity” and the “Form stability upon drying (XRPD)” value [2] was “stable”. For the same compound, the “Change by XRPD after storage” value [6, 7] was “No visible change”, the “Degradation by HPLC purity analysis after storage” value [6, 7] was “no degradation” and the “Stability on storage (in words)” value ([6]; over a week at 40° C. and 75% RH) was “stable”.
